Results taken from patent US20140249135A1, “PIM KINASE INHIBITORS AND METHODS OF THEIR USE” (NOVARTIS AG, priority 2007, published 2014).
pIC50: −log10 of the molar value. Several values for one entry are separate records, joined by “and”; a condition that tells them apart may be missing. Identical values can stand only once.

Tests used:
Pim1 kinase = Pim1 kinase (Homo sapiens, UniProt P11309); test: Pim1 ATP depletion assay; assay type: biochemical; settings: Pim1 ATP depletion assay; read-out: IC50 (μM) PIM1;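 note: Luciferase-luciferin luminescence readout of residual ATP after PIM1 transfers phosphate to a peptide substrate, 40 µM ATP added, reaction run to roughly half ATP consumption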
Pim2 kinase = Pim2 kinase (Homo sapiens, UniProt Q9P1W9); test: Pim2 ATP depletion assay; assay type: biochemical; settings: read-out: IC50 (μM) PIM2;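 note: Luciferase-based luminescent readout of ATP remaining after PIM2 phosphorylates a BAD peptide, final 5 nM enzyme, 4 µM ATP, 10 µM peptide, 2.5% DMSO, run to roughly half ATP consumption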
Pim3 kinase = Pim3 kinase (Homo sapiens, UniProt Q86V86); test: Pim3 ATP depletion assay; assay type: biochemical; settings: read-out: IC50 (μM) PIM3
[1] = molecular target: T1, human full length PKCE enzyme (Homo sapiens, UniProt Q02156); test: In vitro PKCE assay; assay type: biochemical; settings: 10 nM enzyme, 40 uM peptide substrate, 20 uM ATP, KinaseGlo Plus readout; read-out: PKCε IC50
T1 construct: human full length PKCE enzyme purchased from InVitrogen; purchased InVitrogen
T1 sequence (Q02156 1-737): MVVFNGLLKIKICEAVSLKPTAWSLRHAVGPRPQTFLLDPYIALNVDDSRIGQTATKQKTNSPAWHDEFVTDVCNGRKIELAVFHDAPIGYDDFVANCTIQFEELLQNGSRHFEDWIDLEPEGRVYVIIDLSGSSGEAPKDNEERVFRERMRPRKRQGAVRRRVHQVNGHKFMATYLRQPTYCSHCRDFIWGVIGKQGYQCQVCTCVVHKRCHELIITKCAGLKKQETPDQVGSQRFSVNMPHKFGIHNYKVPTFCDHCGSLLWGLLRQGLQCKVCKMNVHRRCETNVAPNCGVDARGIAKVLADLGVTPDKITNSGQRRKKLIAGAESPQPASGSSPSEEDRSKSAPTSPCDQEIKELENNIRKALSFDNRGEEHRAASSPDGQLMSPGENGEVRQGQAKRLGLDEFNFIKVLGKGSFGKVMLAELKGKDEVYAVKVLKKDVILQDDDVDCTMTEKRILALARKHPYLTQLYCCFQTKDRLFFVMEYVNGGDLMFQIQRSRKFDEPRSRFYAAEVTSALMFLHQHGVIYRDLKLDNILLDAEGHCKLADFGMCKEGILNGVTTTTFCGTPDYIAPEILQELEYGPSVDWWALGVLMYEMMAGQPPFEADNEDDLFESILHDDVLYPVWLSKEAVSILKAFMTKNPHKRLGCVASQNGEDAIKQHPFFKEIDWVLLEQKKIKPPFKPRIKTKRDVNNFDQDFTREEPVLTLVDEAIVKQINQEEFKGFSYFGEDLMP

KDR kinase = KDR kinase (Homo sapiens, UniProt P35968); test: KDR AlphaScreen assay; settings: KDR IC50 (μM)
Chain of KDR kinase (P35968 20-1356): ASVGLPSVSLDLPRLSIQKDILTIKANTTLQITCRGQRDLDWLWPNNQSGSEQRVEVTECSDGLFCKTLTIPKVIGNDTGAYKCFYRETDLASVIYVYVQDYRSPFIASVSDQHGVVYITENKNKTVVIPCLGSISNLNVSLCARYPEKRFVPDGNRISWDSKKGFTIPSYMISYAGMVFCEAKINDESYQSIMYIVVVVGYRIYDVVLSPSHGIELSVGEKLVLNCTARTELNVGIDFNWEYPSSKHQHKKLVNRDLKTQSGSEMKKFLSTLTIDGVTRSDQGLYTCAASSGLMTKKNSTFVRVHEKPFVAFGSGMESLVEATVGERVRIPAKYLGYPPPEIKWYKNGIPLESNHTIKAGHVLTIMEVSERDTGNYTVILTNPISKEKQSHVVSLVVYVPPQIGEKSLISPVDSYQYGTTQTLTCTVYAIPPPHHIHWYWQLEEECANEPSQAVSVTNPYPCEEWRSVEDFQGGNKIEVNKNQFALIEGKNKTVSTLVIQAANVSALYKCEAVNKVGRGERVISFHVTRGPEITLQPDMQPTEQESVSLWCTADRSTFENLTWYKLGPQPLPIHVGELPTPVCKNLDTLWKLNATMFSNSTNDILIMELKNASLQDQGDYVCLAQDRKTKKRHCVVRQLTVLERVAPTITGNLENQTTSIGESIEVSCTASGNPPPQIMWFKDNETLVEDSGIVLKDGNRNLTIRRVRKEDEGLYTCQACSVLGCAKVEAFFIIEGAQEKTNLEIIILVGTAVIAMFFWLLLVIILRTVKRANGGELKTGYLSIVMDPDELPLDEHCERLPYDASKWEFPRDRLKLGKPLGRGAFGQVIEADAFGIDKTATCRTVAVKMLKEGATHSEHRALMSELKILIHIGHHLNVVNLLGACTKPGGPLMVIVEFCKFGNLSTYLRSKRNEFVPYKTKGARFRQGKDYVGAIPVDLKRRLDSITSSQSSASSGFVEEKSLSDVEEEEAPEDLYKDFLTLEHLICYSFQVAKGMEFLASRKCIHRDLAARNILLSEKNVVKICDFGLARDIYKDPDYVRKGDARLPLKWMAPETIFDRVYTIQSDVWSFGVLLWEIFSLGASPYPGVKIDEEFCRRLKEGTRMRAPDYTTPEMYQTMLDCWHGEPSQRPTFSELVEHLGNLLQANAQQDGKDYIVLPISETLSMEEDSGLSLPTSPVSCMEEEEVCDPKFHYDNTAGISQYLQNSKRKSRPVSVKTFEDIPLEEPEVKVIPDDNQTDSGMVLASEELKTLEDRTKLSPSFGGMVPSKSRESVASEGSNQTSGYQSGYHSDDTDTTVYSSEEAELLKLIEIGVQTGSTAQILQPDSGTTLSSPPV

Chain of Pim2 kinase (Q9P1W9 whole entry): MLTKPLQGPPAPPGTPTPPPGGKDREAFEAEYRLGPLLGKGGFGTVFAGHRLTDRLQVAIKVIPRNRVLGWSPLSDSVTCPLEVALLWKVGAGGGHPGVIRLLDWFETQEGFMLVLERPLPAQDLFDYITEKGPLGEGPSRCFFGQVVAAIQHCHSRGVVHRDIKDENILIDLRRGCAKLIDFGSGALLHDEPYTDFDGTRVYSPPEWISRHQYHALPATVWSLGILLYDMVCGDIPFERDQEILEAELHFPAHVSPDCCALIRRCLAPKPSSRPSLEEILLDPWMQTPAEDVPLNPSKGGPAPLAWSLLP
Chain of Pim1 kinase (P11309 whole entry): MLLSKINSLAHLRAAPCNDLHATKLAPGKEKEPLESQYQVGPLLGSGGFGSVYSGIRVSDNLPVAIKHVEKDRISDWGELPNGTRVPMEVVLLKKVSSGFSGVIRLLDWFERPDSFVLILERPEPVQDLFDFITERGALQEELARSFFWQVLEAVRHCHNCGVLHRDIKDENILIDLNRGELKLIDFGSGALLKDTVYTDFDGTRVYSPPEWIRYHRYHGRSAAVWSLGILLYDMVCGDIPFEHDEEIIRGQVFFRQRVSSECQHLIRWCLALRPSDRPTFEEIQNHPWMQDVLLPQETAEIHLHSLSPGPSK

| IC50 (Pim1 kinase) | IC50 (Pim2 kinase) | IC50 (Pim3 kinase) | pIC50 [1] | IC50 (KDR kinase) | Compound |
| --- | --- | --- | --- | --- | --- |
| 1 to 10 µM | > 25 µM | 10 to 25 µM | 4.60 to 5.00 | 1 to 10 µM | Nc1nccnc1C(=O)Nc1cnccc1Cl [Example 125, 3-amino-N-(4-chloropyridin-3-yl)pyrazine-2-carboxamide] |
| < 1 µM | < 1 µM | < 1 µM | > 6.00 | < 1 µM | Nc1ncc(Br)nc1C(=O)Nc1[nH]c(=O)ncc1N1CCCCC1 [Example 132, 3-amino-6-bromo-N-(2-oxo-5-piperidin-1-yl-2,3-dihydro-pyrimidin-4-yl)pyrazine-2-carboxamide] |
| 1 to 10 µM | > 25 µM | 1 to 10 µM | 5.00 to 6.00 | > 25 µM | COc1ncc(-c2cnc(N)c(C(=O)Nc3ccccc3N3CCNCC3)n2)cn1 [Example 391, 3-amino-6-(2-methoxy-pyrimidin-5-yl)-pyrazine-2-carboxylic acid (2-piperazin-1-yl-phenyl)-amide] |
| > 25 µM | > 25 µM | 10 to 25 µM | < 4.60 | 1 to 10 µM | Cc1cnc(N)c(C(=O)Nc2cc(C(=O)c3ccccc3)ccc2N2CCNCC2)n1 [Example 440, 3-amino-6-methyl-pyrazine-2-carboxylic acid (5-benzoyl-2-piperazin-1-yl-phenyl)-amide] |
| 1 to 10 µM | > 25 µM | > 25 µM and 10 to 25 µM | 5.00 to 6.00 | 1 to 10 µM | Nc1nccnc1C(=O)Nc1cnccc1N1CCCNCC1 [Example 199, 3-amino-N-[4-(1,4-diazepan-1-yl)pyridin-3-yl]pyrazine-2-carboxamide] |

The remaining lines, values behind:

| Compound | IC50 (Pim1 kinase) | IC50 (Pim2 kinase) | IC50 (Pim3 kinase) | pIC50 [1] | IC50 (KDR kinase) |
| --- | --- | --- | --- | --- | --- |
| COc1cncc(-c2cnc(N)c(C(=O)Nc3cnccc3N3CCNCC3)n2)n1 [Example 360, 5-amino-6′-methoxy-[2,2′]bipyrazinyl-6-carboxylic acid (4-piperazin-1-yl-pyridin-3-yl)-amide] | 1 to 10 µM | > 25 µM | 1 to 10 µM | 5.00 to 6.00 | < 1 µM |
| COc1ccc(-c2cnc(N)c(C(=O)Nc3ccccc3N3CCC(N)CC3)n2)cc1 [Example 381, 3-amino-6-(4-methoxy-phenyl)-pyrazine-2-carboxylic acid [2-(4-amino-piperidin-1-yl)-phenyl]-amide] | < 1 µM | < 1 µM | < 1 µM | > 6.00 | 1 to 10 µM |
| Nc1nc(N)c(C(=O)Nc2[nH]c(=O)ncc2N2CCCC(N)C2)nc1Cl (stereo not shown) [Example 134, 3,5-diamino-N-[5-(3-amino-piperidin-1-yl)-2-oxo-2,3-dihydropyrimidin-4-yl]-6-chloropyrazine-2-carboxamide] | < 1 µM | < 1 µM | < 1 µM | 5.00 to 6.00 | 1 to 10 µM |
| NC(=O)c1cccc(-c2cnc(N)c(C(=O)Nc3cnccc3N3CCCC(N)C3)n2)c1 (stereo not shown) [Example 369, 3-amino-6-(3-carbamoyl-phenyl)-pyrazine-2-carboxylic acid (3-amino-3,4,5,6-tetra-hydro-2H-[1,4′]bipyridinyl-3′-yl)-amide] | < 1 µM | < 1 µM | < 1 µM | > 6.00 | < 1 µM |
| Nc1nccnc1C(=O)Nc1cc(Cl)ccc1N1CCNCC1 [Example 213, 3-amino-N-(5-chloro-2-piperazin-1-ylphenyl)pyrazine-2-carboxamide] | 1 to 10 µM | > 25 µM | 1 to 10 µM | 5.00 to 6.00 | > 25 µM |
| Nc1nccnc1C(=O)Nc1cnccc1N1CCC2(CC1)OCCO2 [Example 127, 3-amino-N-[4-(1,4-dioxa-8-azaspiro[4.5]dec-8-yl)pyridin-3-yl]pyrazine-2-carboxamide] | 1 to 10 µM | > 25 µM | > 25 µM | 5.00 to 6.00 | > 25 µM |
